From patent publication US20090024021A1, “Methods and Systems for Using Transcranial Magnetic Stimulation and Functional Brain Mapping for Examining Cortical Sensitivity, Brain Communication, and Effects of Medication” (priority 2002, published 2009)
Where “and” joins values, the source holds several entries; their conditions need not be identical. Identical values can stand only once.

Test system: left primary motor cortex
Test: Resting motor threshold (RMT) by TMS with EMG of abductor pollicis brevis
Assay type: in vivo, human
Description: Study design: We performed a randomized, double-blind, crossover trial involving two visits at least one week apart (FIG. 8). […] Serum LTG levels, RMTs, and interleaved TMS/phMRI images during both motor and then prefrontal TMS were then gathered for each subject. One week later they received LTG or placebo again, followed by identical RMT and interleaved TMS/phMRI studies.
General Procedure: After arriving at the laboratory in the early afternoon, baseline RMT was determined and baseline plasma levels of LTG were drawn. They were then given a single oral dose of 325 mg LTG or placebo. They then waited quietly for 3 hours. Three hours after taking the oral pill, RMT was determined and serum plasma levels were again drawn.
TMS: Focal TMS was delivered by a MAGSTIM Super Rapid stimulator (Magstim Co, Whitland, Dyfed, U.K) and applied through a focal figure-of-eight magnetic coil (each wing 70 mm in diameter). The optimal position of the magnetic coil for eliciting a MEP in the right abductor pollicis brevis (APB) was determined by holding the coil tangential to the scalp, and moving it in small steps over the presumed area of the left primary motor cortex at a slightly suprathreshold stimulus intensity. The coil was always held horizontally with the handle pointing backward and laterally at 45 degrees from the midline. This position was marked with a pen on a reusable latex swimming cap in order to assure constant placement of the coil throughout the visits. Stimulus intensity and threshold values were expressed as percent of the maximal stimulator output.
Resting Motor Threshold (RMT): Surface electromyographic (EMG) was recorded from the APB using 9-mm Ag—AgCl electrodes in a belly-tendon montage. The placement of electrodes on the thumb and hand was marked with a pen for exact re-placement in consecutive visits on the same day. The raw EMG signal was amplified by a factor of 100 gain and band-pass filtered, […] with a High Performance Band pass Filter Model V-7548 (LAB Linc. Co). The EMG was recorded on a G3 Macintosh with MacCRO (version 2.1).
RMT was determined in the resting APB in 4 steps: In step one and step three, thresholds were approached from a slightly suprathreshold intensity by reducing the stimulus intensity in 1% steps with a 5 sec interval between pulses, whereas in steps two and four, thresholds were approached from a slightly subthreshold intensity by increasing the stimulus intensity. RMT was defined as the first intensity that produced a MEP of greater than 50 μV in 3 out of 6 trials in the resting target muscle. A mean RMT for baseline or after medication was calculated by averaging the four values. Determination of the RMT using this technique usually lasted 30 minutes.
The percent change of RMT=100[(post-dose RMT−pre-dose RMT)/pre-dose RMT]. Paired Student's t tests (two tailed) were performed for the percent change of RMT between LTG and placebo. Wilcoxon nonparametric tests were performed for the number of active voxels in the region of interests (ROI) between LTG and placebo. We performed Pearson correlations between the percent change of RMT and the change of active voxel number. Two-way analysis of variance (ANOVA) was performed for % BOLD signal change in the different intensity stimulation and the different medication conditions. All statistical analyses were performed using SPSS 10.0 (Statistical Product and Service Solutions Inc, Chicago Ill.).

Compound: Nc1nnc(-c2cccc(Cl)c2Cl)c(N)n1 [LTG, Lamotrigine]
- RMT Post-3 hours (LTG visit, 3 hours after single oral dose of 325 mg LTG, individual subjects 1-12): 75.25% of machine maximum output (Magstim) and 66.25% of machine maximum output (Magstim) and 66.50% of machine maximum output (Magstim) and 99.00% of machine maximum output (Magstim) and 55.25% of machine maximum output (Magstim) and 100.00% of machine maximum output (Magstim) (2×) and 101.00% of machine maximum output (Magstim) (2×) and 64.50% of machine maximum output (Magstim) and 68.25% of machine maximum output (Magstim) and 95.25% of machine maximum output (Magstim)
- RMT Post-3 hours, mean (LTG visit, 3 hours after single oral dose of 325 mg LTG, mean of 12 subjects): 82.69% of machine maximum output (Magstim)
- RMT % Change from baseline (LTG visit, post-dose 3 hours vs pre-dose same day, individual subjects 1-12): 8.27% and 28.02% and 7.26% and 30.26% and 1.38% and 3.63% and 26.10% and 19.53% and 8.86% and 15.76% and 12.81% and 16.87%
- RMT % Change from baseline, mean (LTG visit, post-dose 3 hours vs same day baseline, mean of 12 subjects, placebo 0.6%): 14.9%
- TMS resting motor threshold compared with placebo (all 12 subjects, day subjects received LTG): significant increase
